RB percent control and CPM percent control data for 26 compounds are collected here from patent US6995157B2, “Substituted 4,5-dihydro-1,2,4-triazin-3-ones, 1,2,4-triazin-3-ones, and their use as fungicides and insecticides” (priority 2000, dated 2006).

In one experiment the test system is Pyricularia oryzae. The class given is in vivo. As to conditions: protectant, 300 g/ha, greenhouse, inoculated 1 day after spraying, rated six days after inoculation; 100 is total disease control, 0 is no disease control.
A further experiment relates to Sphaerotheca fuliginea. As to conditions: in vivo.

The structures appear in SMILES notation.

Take `CCCCCN1N=C(c2ccccc2)C(OC)NC1=O` (racemic) [Compound 9]: in the experiment on Pyricularia oryzae, the RB percent control is given as 85%. In the experiment with Sphaerotheca fuliginea, the CPM percent control was 0%.

As to `COC1NC(=O)N(C)N=C1c1ccc(Cl)cc1` (racemic) [Compound 12], the RB percent control in the experiment on Pyricularia oryzae is reported as 80%. In the experiment with Sphaerotheca fuliginea, this compound returned a CPM percent control of 0%.

For `COC1NC(=O)N(C(C)(C)C)N=C1c1ccc(Cl)cc1` (racemic) [Compound 14], the RB percent control in the experiment with Pyricularia oryzae is reported as 90%. This compound came in with a CPM percent control with Sphaerotheca fuliginea of 50%.

`CCCCCCCCCCN1N=C(c2ccc(Cl)cc2)C(OC)NC1=O` (racemic) [Compound 17] gave an RB percent control in the experiment on Pyricularia oryzae of 80%. In the experiment with Sphaerotheca fuliginea, this compound yielded a CPM percent control of 0%.

`COC1NC(=O)N(c2ccccc2)N=C1c1ccc(Cl)cc1` (racemic) [Compound 18] gave an RB percent control in the experiment with Pyricularia oryzae of 85%. This compound also yielded a CPM percent control in the experiment on Sphaerotheca fuliginea of 80%.

Compound `COC1NC(=O)N(CC(F)(F)F)N=C1c1ccc(Cl)cc1` (racemic) [Compound 20] gave an RB percent control in the experiment on Pyricularia oryzae of 80%. Besides, in the experiment on Sphaerotheca fuliginea, the CPM percent control came out at 0%.

`CCCCCN1N=C(c2ccc(Cl)cc2)C(OC)NC1=O` (centres unmarked) [Compound 1, 2-pentyl-5-methoxy-6-(4-chlorophenyl)-4,5-dihydro-1,2,4-triazin-3-one] displayed an RB percent control in the experiment on Pyricularia oryzae of 85%. Also, the CPM percent control in the experiment with Sphaerotheca fuliginea came out at 0%.

Regarding `CCCCCn1nc(-c2ccc(Cl)cc2)cnc1=O` [Compound 2, 2-pentyl-6-(4-chlorophenyl)-1,2,4-triazin-3-one], the RB percent control in the experiment on Pyricularia oryzae stood at 85%. This compound also had a CPM percent control with Sphaerotheca fuliginea of 50%.

As for `CCCCN1N=C(c2ccc(Cl)cc2)C(OC)NC1=O` (centres unmarked) [Compound 3, 2-n-butyl-5-methoxy-6-(4-chlorophenyl)-4,5-dihydro-1,2,4-triazin-3-one], the RB percent control with Pyricularia oryzae came out at 85%. Moreover, in the experiment on Sphaerotheca fuliginea, the CPM percent control is recorded as 0%.

In the case of `CCCCn1nc(-c2ccc(Cl)cc2)cnc1=O` [Compound 4, 2-n-butyl-6-(4-chlorophenyl)-1,2,4-triazin-3-one], the RB percent control with Pyricularia oryzae is reported as 85%. The compound further registered a CPM percent control in the experiment on Sphaerotheca fuliginea of 0%.

With `CCCCN1N=C(c2ccc(Cl)cc2)CN(S(C)(=O)=O)C1=O` [Compound 5, 2-n-butyl-4-methanesulfonyl-6-(4-chlorophenyl)-4,5-dihydro-1,2,4-triazin-3-one], the RB percent control with Pyricularia oryzae came to 0%. The compound also gave a CPM percent control in the experiment on Sphaerotheca fuliginea of 90%.

As for `CCCCCn1nc(-c2ccc(OC)cc2)c(-c2ccc(OC)cc2)nc1=O` [Compound 8, 2-n-pentyl-5,6-bis-(4-methoxyphenyl)-1,2,4-triazin-3-one], in the experiment on Pyricularia oryzae, the RB percent control is 50%. The CPM percent control in the experiment with Sphaerotheca fuliginea is listed as 0%.

In turn, `CCCCCn1nc(-c2ccccc2)cnc1=O` [Compound 10] yielded an RB percent control with Pyricularia oryzae of 80%. The compound also yielded a CPM percent control with Sphaerotheca fuliginea of 0%.

In the experiment with Pyricularia oryzae, `Cn1nc(-c2ccc(Cl)cc2)cnc1=O` [Compound 11] displayed an RB percent control of 80%. The CPM percent control with Sphaerotheca fuliginea turned out to be 0%.

For `CC(C)(C)n1nc(-c2ccc(Cl)cc2)cnc1=O` [Compound 13], in the experiment on Pyricularia oryzae, the RB percent control was 85%. This compound also gave a CPM percent control with Sphaerotheca fuliginea of 0%.

In the case of `O=C1NCC(c2ccc(Cl)cc2)=NN1c1ccccc1` [Compound 15], the RB percent control in the experiment with Pyricularia oryzae is 75%. The compound further showed a CPM percent control in the experiment with Sphaerotheca fuliginea of 0%.

The compound `CS(=O)(=O)N1CC(c2ccc(Cl)cc2)=NN(c2ccccc2)C1=O` [Compound 16] showed an RB percent control with Pyricularia oryzae of 50%. The compound also had a CPM percent control in the experiment with Sphaerotheca fuliginea of 0%.

Take `O=C1NCC(c2ccc(Cl)cc2)=NN1CC(F)(F)F` [Compound 19]: the RB percent control in the experiment with Pyricularia oryzae was found to be 75%. Besides, the CPM percent control in the experiment with Sphaerotheca fuliginea was 0%.

As for `CN1CC(c2ccc(Cl)cc2)=NN(C#N)C1=O` [Compound 27], in the experiment with Pyricularia oryzae, the RB percent control worked out at 50%. The same compound gave a CPM percent control in the experiment on Sphaerotheca fuliginea of 0%.

Take `C#CCN1N=C(c2ccc(Cl)cc2)CN(CCC)C1=O` [Compound 28]: in the experiment with Pyricularia oryzae, the RB percent control came out at 50%. In the experiment with Sphaerotheca fuliginea, this compound gave a CPM percent control of 0%.

With `CN1CC(c2ccccc2Cl)=NN(Cc2ccc(Cl)cc2)C1=O` [Compound 29], the RB percent control in the experiment with Pyricularia oryzae amounted to 50%.

In the experiment with Pyricularia oryzae, `CN1CC(c2ccc(Cl)cc2)=NN(Cc2ccc(Cl)cc2)C1=O` [Compound 30] yielded an RB percent control of 75%.

`CCC#CCn1nc(-c2ccc(Cl)cc2)cnc1=O` [Compound 31] came in with an RB percent control with Pyricularia oryzae of 85%. In the experiment on Sphaerotheca fuliginea, this compound had a CPM percent control of 50%.

Turning to `CCC#CCN1CC(c2ccc(Cl)cc2)=NN(C)C1=O` [Compound 32], the RB percent control in the experiment on Pyricularia oryzae is 75%. Also, the CPM percent control in the experiment on Sphaerotheca fuliginea was determined as 75%.

The compound `CN1N=C(c2ccc(Cl)cc2)CNC1=O` [Compound 33] showed an RB percent control in the experiment on Pyricularia oryzae of 80%. For the same compound, in the experiment with Sphaerotheca fuliginea, the CPM percent control is listed as 0%.

As to `CCCCCn1nc(-c2ccc(OC)cc2)cnc1=O` [Compound 34], in the experiment with Pyricularia oryzae, the RB percent control is 85%. The same compound displayed a CPM percent control in the experiment with Sphaerotheca fuliginea of 0%.
